Results from US20250270445A1, “COMPOUNDS AND USES THEREOF IN FIELD OF OPTOELECTRONICS” (Zhejiang Brilliant Optoelectronic Technology Co.,Ltd., priority 2022, published 2025).

Legend:
Type in all cases: physicochemical
[1] = Absorption and emission spectrum in spin-coated film; details: spin-coated film
Method: The absorption and emission spectrums of the compounds in the film were determined as follows: • 1. The compound with a certain concentration in the toluene was prepared. • 2. The prepared toluene solution was dropped onto a clean glass substrate. • 3. Spin-coating, and then heating at the 80° C. for 1 min. • 4. The absorption spectrum of the film was measured by using an ultraviolet-visible spectrophotometer (Puxi T9s) to obtain the absorption peak wavelength. • 5. The emission spectrum of the film was measured by using a fluorescent spectroscope (Hitachi, F-4700 FL Spectrophotometer) to obtain the emission peak wavelength.

[2] = UV stability of compounds in toluene (absorbance decay to 80%); details: 1×10^−5 mol/L in toluene, UV LEDs 365 nm & 255 nm, time to 80% absorbance, normalized to comparative compound 2 as 100%
Method: The compound was dissolved in the toluene with a concentration of 1×10^−5 mol/L. 3 mL solution was added to the cuvette with a lid and the lid was screwed on tightly, then the cuvette was placed in the ultraviolet-visible spectrophotometer to test the absorption spectrum, the absorbance of the maximum absorption peak was recorded as the initial value. The cuvette was placed at a distance of 12 cm from the UV LEDs (365 nm & 255 nm), irradiated for a period and tested its absorption spectrum, then continued to be irradiated after the test, and repeated until the absorbance decayed to 80% of its initial value, the time was recorded as t80.

[3] = Solubility of compounds in toluene
Method: The solubility of the compounds in the toluene were determined as follows: • 1. 1000 mg of toluene solution was placed in the transparent glass sample bottle. • 2. A certain mass of the compound was added into the toluene, and oscillated until completely dissolved. • 3. After the compound was completely dissolved, a certain mass of the compound was further added into the toluene, and oscillated. • 4. The above steps were repeated until the compound wasn't dissolved any more. • 5. The total mass of the compound added was recorded and the solubility was obtained by calculation.

[4] = Absorption spectrum, emission spectrum and extinction coefficient in toluene solution; details: for Molar extinction coefficient of the toluene solution: maximum absorption peak
Method: The extinction coefficients of the compounds and their absorption and emission spectrums in the solution were determined as follows: • 1. The compound with a certain amount of substance concentration in the toluene was prepared in a volumetric flask. • 2. The absorption spectrum of the solution was measured by using an ultraviolet-visible spectrophotometer (Puxi T9s) to obtain the absorption peak wavelength. • 3. The absorbance of the maximum absorption peak divided by the amount of substance concentration is the molar extinction coefficient of the compound. • 4. The emission spectrum of the solution was measured by using a fluorescent spectroscope (Hitachi, F-4700 FL Spectrophotometer) to obtain the emission peak wavelength.

[5] = Blue light stability of the film (luminance decay); details: about 800 nm evaporated film, blue LED 460 nm, 3000 cd/m^2, versus comparative compound 1
Method: A film about 800 nm was evaporated, encapsulated with a glass cover plate, then placed at 2.5 cm above the blue LED (460 nm, 3000 cd/m^2) to test the luminance value with a luminance meter (Fstar, CS-2000A). The luminance value of the first test was recorded as the initial value, and the luminance was tested by irradiating for a period of time to obtain the luminance decay curve, see FIG. 34.

| SMILES | Absorption peak of the film [1] [nm] | Emission peak of the film [1] [nm] | Times t80 [2] [%] | Solubilities(/100 g, toluene) [3] [g/100 g toluene] | Absorption peak of the toluene solution [4] [nm] | Emission peak of the toluene solution [4] [nm] | Molar extinction coefficient of the toluene solution [4] | stability of the film under blue-light illumination (luminance decay) [5] |
| --- | --- | --- | --- | --- | --- | --- | --- | --- |
| CCCCCCCCc1ccc(N(c2ccc(C(C)C)cc2-c2cc(F)c(F)c(F)c2)c2cc(N(c3ccc(CCCCCCCC)cc3)c3ccc(C(C)C)cc3-c3cc(F)c(F)c(F)c3)c3ccc4c(N(c5ccc(CCCCCCCC)cc5)c5ccc(C(C)C)cc5-c5cc(F)c(F)c(F)c5)cc(N(c5ccc(CCCCCCCC)cc5)c5ccc(C(C)C)cc5-c5cc(F)c(F)c(F)c5)c5ccc2c3c54)cc1 [compound 20] | 486 | 504 | 528 | >10 | 485 | 504 | 5.5 × 10^4 L · mo 1^−1 | – |
| Cc1cccc(C)c1N(c1cc(C(C)(C)C)cc(C(C)(C)C)c1)c1cc(N(c2cc(C(C)(C)C)cc(C(C)(C)C)c2)c2c(C)cccc2C)c2ccc3c(N(c4cc(C(C)(C)C)cc(C(C)(C)C)c4)c4c(C)cccc4C)cc(N(c4cc(C(C)(C)C)cc(C(C)(C)C)c4)c4c(C)cccc4C)c4ccc1c2c43 [compound 5] | 476 | 497 | 304 | 4.6 | 477 | 497 | 5.6 × 10^4 L · mo 1^−1 | – |
| CCCCCCCCc1ccc(-c2cc(C(C)C)ccc2N(c2cc(F)c(F)c(F)c2)c2cc(N(c3cc(F)c(F)c(F)c3)c3ccc(C(C)C)cc3-c3ccc(CCCCCCCC)cc3)c3ccc4c(N(c5cc(F)c(F)c(F)c5)c5ccc(C(C)C)cc5-c5ccc(CCCCCCCC)cc5)cc(N(c5cc(F)c(F)c(F)c5)c5ccc(C(C)C)cc5-c5ccc(CCCCCCCC)cc5)c5ccc2c3c54)cc1 [compound 13] | 473 | 490 | 410 | >15 | 473 | 494 | 5.9 × 10^4 L · mo 1^−1 | – |
| Cc1cccc(C)c1N(c1ccc(C(C)(C)C)cc1)c1cc(N(c2ccc(C(C)(C)C)cc2)c2c(C)cccc2C)c2ccc3c(N(c4ccc(C(C)(C)C)cc4)c4c(C)cccc4C)cc(N(c4ccc(C(C)(C)C)cc4)c4c(C)cccc4C)c4ccc1c2c43 [compound 3] | 479 | 497 | 212 | 4.2 | 477 | 495 | 3.0 × 10^4 L · mo 1^−1 | – |
| CCc1cccc(CC)c1N(c1cc(C(C)(C)C)cc(C(C)(C)C)c1)c1cc(N(c2cc(C(C)(C)C)cc(C(C)(C)C)c2)c2c(CC)cccc2CC)c2ccc3c(N(c4cc(C(C)(C)C)cc(C(C)(C)C)c4)c4c(CC)cccc4CC)cc(N(c4cc(C(C)(C)C)cc(C(C)(C)C)c4)c4c(CC)cccc4CC)c4ccc1c2c43 [compound 8] | 482 | 499 | 261 | 30.1 | 484 | 501 | 5.3 × 10^4 L · mo 1^−1 | obviously improved UV stability |
| Cc1cccc(C)c1N(c1ccccc1)c1cc(N(c2ccccc2)c2c(C)cccc2C)c2ccc3c(N(c4ccccc4)c4c(C)cccc4C)cc(N(c4ccccc4)c4c(C)cccc4C)c4ccc1c2c43 [compound 1] | 477 | 497 | 190 | 1.5 | 475 | 490 | 6.0 × 10^4 L · mo 1^−1 | – |
